In patent US20040086498A9, “Cancer therapy” (priority 1999, published 2004):

Tests used:
EL-4 target cells = experiment: Measurement of anti-tumour CTL activity of splenocytes from treated mice; type: cell-based; conditions: 21 days following gene transfer; combinations versus B7.1 monotherapy
Method: Measurement of the Generation of Anti-Tumour CTL. Splenocytes were harvested 21, and 42 days following initial gene transfer, and 22 days following a parental tumour challenge. They were incubated at 37° C. with EL-4 target cells in graded E:T ratios in 96-well round-bottom plates. After a 4-hour incubation, 50 μl of supernatant was collected, and lysis was measured using the Cyto Tox 96 Assay Kit (Promega, Madison, Wis., USA). Background controls for non-specific target and effector cell lysis were included. After background subtraction, percentage of cell lysis was calculated using the formula: 100×(experimental-spontaneous effector-target spontaneous target/maximum target-spontaneous target).

EL-4 tumours = experiment: Treatment of large established EL-4 tumours with CAM gene transfer, DMXAA/FAA or timed combination; type: in vivo, C57BL/6 mice; conditions: large EL-4 tumours 0.6-0.8 cm; systemic (i.p.) optimal dose monotherapy; over a period of 3 weeks
Method: Female C57BL/6 mice, 6-9 weeks old, were obtained from the Animal Resource Unit, School of Medicine and Health Science, University of Auckland, Auckland. The EL-4 thymic lymphoma and mouse Lewis lung carcinoma cells (LLC) (H-2b) were purchased from the American Type Culture Collection (Rockville, Md). These cell lines were cultured in vitro at 37° C. in DMEM medium (Gibco BRL), supplemented with 10% foetal calf serum, 50 U/ml penicillin/streptomycin, 2 mM L-glutamine, 1 mM pyruvate.
Experimental Tumour Model.
Administration FAA and DMXAA Analogues. FAA was gifted from the Department of Health & Human Services, Drug Synthesis & Chemistry laboratory, National Cancer Institute, Bethesda, USA. The sodium salt of DMXAA was synthesized in the Auckland Cancer Society Research Centre, School of Medicine and Health Science, University of Auckland. Solutions of FAA and DMXAA in 5% (w/v) sodium bicarbonate and water, respectively, were prepared fresh for each experiment and protected from light. FAA and DMXAA were injected i.p. at 300 mg/Kg and 25 mg/Kg of body weight in a volume of 0.01 ml/g body weight, respectively.
Gene Transfer of B7.1. […]

established EL-4 tumours = experiment: Adoptive transfer of anti-tumour splenocytes from treated mice; type: in vivo; conditions: 2×10^8 splenocytes from treated mice; recipients with EL-4 tumours up to 0.8 cm
Method: Adoptive Transfer of Anti-Tumour CTL. Adoptive transfer of anti-tumour splenocytes was as described previously (Kanwar et al, 1999). Briefly, splenocytes obtained from mice 21 days following therapy were resuspended in Hank's balanced salt solution containing 1% FCS, and stimulated with 5 μg/ml PHA and 100 U/ml recombinant mouse IL-2 for 4 to 5 days. Animals bearing tumours 0.6 cm in diameter received both intratumoral and i.p. injections of 2×10^8 cultured splenocytes.

heat shock protein 70 = experiment: Immunohistology of hsp70 expression in tumours; type: in vivo, mice; conditions: 7 days following administration
Method: Immunohistology. Tumours were excised on the seventh day following administration of therapeutic agents and controls, immediately frozen in dry ice, stored at −70° C. in isopentane, and sections of 10 μm thickness prepared. Sections were mounted on poly L-lysine-coated slides, and endogenous peroxidases blocked by incubating slides for 30 min in 0.3% H2O2 in methanol. Sections were stained with mouse anti-Hsp70 mAb (SPA-810 antibody; StressGen Biotechnologies Corp., Victoria, Canada) using a mouse-on-mouse immunodetection ABC Elite peroxidase kit (Vector Laboratories, Burlingame, Calif., USA). They were developed with SIGMA FAST DAB (3,3′-diaminobenzidine tetrahydrochloride) with metal enhancer CoCl2 tablets, and counterstained with haematoxylin and eosin. As a control, the primary antibody was substituted with rat IgG (Sigma, USA).

EL-4 tumour sections = experiment: In situ detection of apoptotic and necrotic cells (TUNEL / propidium iodide); type: in vivo, mice; conditions: tumour sections 7, 14, 21 days after treatment; TUNEL and PI
Method: In Situ Detection of Apoptotic Cells. Tumours were excised and immediately frozen in dry ice, stored at −70° C., and serial sections of 6 μm thickness prepared. TUNEL staining was performed using an In Situ apoptosis detection kit from Boehringer Mannheim, Germany. Briefly, frozen sections were fixed with paraformaldehyde solution (4% in PBS, pH 7.4), and permeabilized with a solution containing 0.1% Triton X-100 and 0.1% sodium citrate. After washing they were incubated with 20 μl TUNEL reagent for 60 min at 37° C., and examined by fluorescence microscopy. Some slides were counterstained with propidium iodide (PI; Sigma, Calif., USA) to distinguish necrotic cells from those undergoing apoptosis. Adjacent sections were counterstained with haematoxylin and eosin and mounted. The total number of apoptotic or necrotic cells were counted. The apototic index (AI) or necrotic index (NI) was calculated as follows: AI or NI=number of apoptotic or necrotic cells×100/total number of nucleated cells.

Molecule | anti-tumour CTL activity of splenocytes (EL-4 target cells) | tumour diameter to which tumours shrank (EL-4 tumours) | anti-tumour effect of adoptively transferred splenocytes (established EL-4 tumours) | hsp70 expression in tumours (heat shock protein 70) | apoptotic versus necrotic tumour cells (EL-4 tumour sections)
Cc1ccc2c(=O)c3cccc(CC(=O)O)c3oc2c1C [DMXAA, 5,6-dimethylxanthenone-4-acetic acid] | very poor effectors | 0.1-0.2 cm | no detectable anti-tumour activity | consistently found upregulated on tumour cells either surrounding or within the vicinity of blood vessels | predominance of necrotic cells
flavone acetic acid [FAA] | very poor effectors | 0.2-0.4 cm |  |  | 
